Results reported in patent US9078442B2, “Herbicidally and fungicidally active 3-phenylisoxazoline-5-carboxamides and 3-phenylisoxazoline-5-thioamides” (BAYER INTELLECTUAL PROPERTY GMBH, priority 2011, dated 2015).

Legend:
Peronospora parasitica = test: In vivo test Peronospora parasitica (downy mildew on cabbage), protective; details: evaluation 5 days after infection
Method: In vivo test Peronospora parasitica (downy mildew on cabbage) To prepare an appropriate active compound formulation, the active compound is mixed with acetone/Tween/DMSO and the mixture is diluted with water to the desired concentration. Cabbage plants are cultivated in 50/50 peat/pozzolan soil in small pots at 18-20° C. and sprayed at the cotyledon stage at the respective stated application rates to test for protective activity. Control plants were treated in the same manner, but using an aqueous solution without any active compounds. 24 hours after the spraying, the plants were sprayed with a spore suspension of Peronospora parasitica (50 000 spores/ml). The plants were placed in a cabin at 20° C. in a humid atmosphere for 5 days.

Phytophthora infestans = format: in vivo; details: Phytophthora infestans on tomato, application rate 1200 g/ha, evaluation 5 days after infection
Leptosphaeria nodorum = test: In vivo test Leptosphaeria nodorum (wheat); details: Leptosphaeria nodorum on wheat, application rate 1200 g/ha, evaluation 15-17 days after inoculation
Method: Wheat plants (cultivar: (Scipion) are cultivated in 50/50 peat pozzolan substrate at 12° C. and sprayed at the 1-leaf stage with the active compound preparation as given in Example A. After 24 hours, the plants are sprayed with a spore suspension of Leptosphaeria nodorum (250 000 spores/ml).

[1] = system: Mycosphaerella graminicola; test: In vivo test Mycosphaerella graminicola (wheat); details: Mycosphaerella graminicola on wheat, evaluation 21-28 days after inoculation
Method: Wheat plants (cultivar: (Scipion) are cultivated in 50/50 peat pozzolan substrate at 12° C. and sprayed at the 1-leaf stage with the active compound preparation as given in Example A. After 24 hours, the plants are sprayed with a spore suspension of Mycosphaerella graminicola (500 000 spores/ml).

Sphaerotheca fuliginea = test: In vivo test Sphaerotheca fuliginea (cucumber); details: Sphaerotheca fuliginea on cucumber, evaluation 12 days after inoculation
Method: Cucumber plants (cultivar: Vert petit de Paris) are cultivated in 50/50 peat pozzolan substrate at 20/23° C. and sprayed at the cotyledon stage with the active compound preparation given in Example A. After 24 hours, the plants are sprayed with a spore suspension of Sphaerotheca fuliginea (100 000 spores/ml).

Alternaria brassicae = test: In vivo test Alternaria brassicae (salad radish); design: concentration or dose not given beside the values; details: Alternaria brassicae on salad radish, application rate not given, evaluation 6-7 days after inoculation
Method: Salad radish (cultivar Pernot) are cultivated in 50/50 peat pozzolan substrate at 18-20° C. and sprayed at the cotyledon stage with the active compound preparation given above. After 24 hours, the plants are sprayed with a spore suspension of Alternaria brassicae (40 000 spores/cm3). The inoculated plants are placed at 18° C. and in a humid atmosphere for 6-7 days. […] At an application rate of g/ha, the following efficacies are found for the following compounds.

Botrytis cinerea = test: In vivo test Botrytis cinerea (gray mold on cucumbers); details: Botrytis cinerea on cucumber, evaluation 5-7 days after infection
Method: Cucumber plants (Vert petit de Paris) are cultivated in 50/50 peat pozzolan substrate at 20-25° C. and sprayed at the Z16 stage with the active compound preparation given in Example 1. After 24 hours, the upper sides of the leaves of the plants are sprayed with a spore suspension of Botrytis cinerea (150 000 spores/ml). The spores of a 15-day old culture are collected and suspended in a nutrient solution consisting of • 20 g/l of gelatin; • 50 g/l of D-fructose; • 2 g/l of NH4NO3; • 1 g/L of KH2PO4. The inoculated cucumber plants are placed at 15-11° C. (day/night) and at 80% relative atmospheric humidity for 5-7 days.

COCCCCNC(=O)C1(C)CC(c2cc(Cl)cc(Cl)c2)=NO1 (centres unmarked) [Example 6.006]
Activity [%] (efficacy) (Peronospora parasitica; application rate 1200 g/ha): 100% | Activity [%] (efficacy) (Phytophthora infestans): 70% | Activity [%] (efficacy) (Leptosphaeria nodorum): 100%

Cc1cc(CNC(=O)C2(C)CC(c3cc(Cl)cc(Cl)c3)=NO2)n(C)n1 (centres unmarked) [Example 1.122]
Activity [%] (efficacy) (Peronospora parasitica; application rate 500 g/ha): 100% | Activity [%] (efficacy) ([1]; application rate 500 g/ha): 75% | Activity [%] (efficacy) (Sphaerotheca fuliginea; application rate 500 g/ha): 72%

Cc1c(NC(=O)C2(C)CC(c3cc(F)cc(F)c3)=NO2)cnn1C (centres unmarked) [Example 1.007]
Activity [%] (efficacy) ([1]; application rate 500 g/ha): 73% | Activity [%] (efficacy) (Sphaerotheca fuliginea; application rate 500 g/ha): 75%

CCn1cc(CNC(=O)C2(CC)CC(c3cc(Cl)cc(Cl)c3)=NO2)cn1 (centres unmarked) [Example 2.136]
Activity [%] (efficacy) (Peronospora parasitica; application rate 1200 g/ha): 100% | Activity [%] (efficacy) (Phytophthora infestans): 90% | Activity [%] (efficacy) ([1]; application rate 1200 g/ha): 88%

CCC(C)NC(=O)C1(C)CC(c2cc(Cl)cc(Cl)c2)=NO1 (mixture of isomers) [Example 6.217]
Activity [%] (efficacy) (Alternaria brassicae): 81% | Activity [%] (efficacy) (Botrytis cinerea; application rate 1200 g/ha): 100% | Activity [%] (efficacy) (Peronospora parasitica; application rate 1200 g/ha): 100%

CC(C)(C)NC(=O)C1(C)CC(c2cc(Cl)cc(Cl)c2)=NO1 (centres unmarked) [Example 6.117, N-tert-butyl-3-(3,5-dichlorophenyl)-5-methyl-4,5-dihydro-1,2-oxazole-5-carboxamide]
Activity [%] (efficacy) (Alternaria brassicae): 73% | Activity [%] (efficacy) (Peronospora parasitica; application rate 500 g/ha): 92% | Activity [%] (efficacy) ([1]; application rate 500 g/ha): 91%

CCn1cc(CNC(=O)C2(C)CC(c3cc(C)cc(C)c3)=NO2)c(C)n1 (centres unmarked) [Example 1.194]
Activity [%] (efficacy) (Botrytis cinerea; application rate 1200 g/ha): 95% | Activity [%] (efficacy) (Peronospora parasitica; application rate 1200 g/ha): 100% | Activity [%] (efficacy) (Phytophthora infestans): 100% | Activity [%] (efficacy) ([1]; application rate 1200 g/ha): 88%

CCCn1cc(CNC(=O)C2(C)CC(c3cc(Cl)cc(Cl)c3)=NO2)c(C)n1 (centres unmarked) [Example 1.374]
Activity [%] (efficacy) (Botrytis cinerea; application rate 1200 g/ha): 98% | Activity [%] (efficacy) (Peronospora parasitica; application rate 1200 g/ha): 100% | Activity [%] (efficacy) (Phytophthora infestans): 100% | Activity [%] (efficacy) (Sphaerotheca fuliginea; application rate 1200 g/ha): 99%

CC(C)NC(=O)C1(C)CC(c2cccc(N)c2)=NO1 (centres unmarked) [Example 6.183]
Activity [%] (efficacy) (Sphaerotheca fuliginea; application rate 500 g/ha): 98%

CC(C)NC(=O)C1(C)CC(c2cc(Cl)cc(OCC(F)(F)F)c2)=NO1 (centres unmarked) [Example 6.193]
Activity [%] (efficacy) ([1]; application rate 500 g/ha): 95% | Activity [%] (efficacy) (Sphaerotheca fuliginea; application rate 500 g/ha): 85%

CCn1cc(CNC(=O)C2(C)CC(c3cc(Cl)cc(Cl)c3)=NO2)c(C)n1 (centres unmarked) [Example 1.222]
Activity [%] (efficacy) (Peronospora parasitica; application rate 500 g/ha): 100% | Activity [%] (efficacy) (Phytophthora infestans): 100% | Activity [%] (efficacy) ([1]; application rate 1200 g/ha): 96%

CCn1cc(CNC(=O)C2(C)CC(c3cc(F)cc(Cl)c3)=NO2)c(C)n1 (centres unmarked) [Example 1.197]
Activity [%] (efficacy) (Peronospora parasitica; application rate 1200 g/ha): 100% | Activity [%] (efficacy) (Phytophthora infestans): 100% | Activity [%] (efficacy) (Sphaerotheca fuliginea; application rate 1200 g/ha): 100%

CC(C)NC(=O)C1(C)CC(c2cc(Cl)cc(C(F)(F)F)c2)=NO1 (centres unmarked) [Example 6.188]
Activity [%] (efficacy) (Alternaria brassicae): 73% | Activity [%] (efficacy) (Botrytis cinerea; application rate 500 g/ha): 86% | Activity [%] (efficacy) ([1]; application rate 500 g/ha): 100%

CCn1cc(CNC(=O)C2(C3CC3)CC(c3cc(Cl)cc(Cl)c3)=NO2)c(C)n1 (centres unmarked) [Example 5.018]
Activity [%] (efficacy) (Peronospora parasitica; application rate 500 g/ha): 100% | Activity [%] (efficacy) (Phytophthora infestans): 75% | Activity [%] (efficacy) ([1]; application rate 1200 g/ha): 88%

CC(C)NC(=O)C1(C)CC(c2cc(Cl)cc(Cl)c2)=NO1 (centres unmarked) [Example 6.165]
Activity [%] (efficacy) (Alternaria brassicae): 95% | Activity [%] (efficacy) (Botrytis cinerea; application rate 500 g/ha): 93% | Activity [%] (efficacy) (Peronospora parasitica; application rate 500 g/ha): 95% | Activity [%] (efficacy) ([1]; application rate 500 g/ha): 100%

CC1(C(=O)NCC2CC2)CC(c2cc(Cl)cc(Cl)c2)=NO1 (centres unmarked) [Example 6.431]
Activity [%] (efficacy) (Alternaria brassicae): 77% | Activity [%] (efficacy) (Peronospora parasitica; application rate 500 g/ha): 71% | Activity [%] (efficacy) ([1]; application rate 500 g/ha): 100%

CCn1cc(CNC(=O)C2(C)CC(c3cccc(Cl)c3)=NO2)c(C)n1 (centres unmarked) [Example 1.195]
Activity [%] (efficacy) (Peronospora parasitica; application rate 1200 g/ha): 100% | Activity [%] (efficacy) (Phytophthora infestans): 100% | Activity [%] (efficacy) ([1]; application rate 500 g/ha): 79%

Cn1cc(CNC(=O)C2(C)CC(c3cc(Cl)cc(Cl)c3)=NO2)cn1 (centres unmarked) [Example 1.285]
Activity [%] (efficacy) (Peronospora parasitica; application rate 500 g/ha): 100% | Activity [%] (efficacy) ([1]; application rate 500 g/ha): 75% | Activity [%] (efficacy) (Sphaerotheca fuliginea; application rate 500 g/ha): 89%
